Square brackets hold non-standard residues; d marks the D form. Peptide text beside a SMILES is read from it. Aoe = N[C@@H](CCCCCC(=O)[C@@H]1CO1)C(=O)O

In experiment [1] the target is Histone deacetylase. The experiment can be described thus: Concentration required to inhibit human Histone deacetylase (HDAC) enzyme by 50%. It is filed as protein assay.
For experiment [2], the target named is Histone deacetylase. The experiment is described as follows: Induction of p21 using Histone deacetylase inhibitors. The class given is protein assay, Homo sapiens.
In experiment [3] the test system is A-431. The experiment can be described thus: Concentration required to inhibit the epidermoid A431 cell growth by 50%, P53 status of cell line used was mutant. Conditions: Homo sapiens.
The test system of experiment [4] is T-24. The experiment is described as follows: Concentration required to inhibit the bladder T24 cell growth by 50%,P53 status of cell line used was mutant. Particulars: Homo sapiens.
Experiment [5] relates to HCT-116. The experiment is described as follows: Concentration required to inhibit the HCT116 cell growth by 50%. It is filed as functional, cell-based. Particulars: Homo sapiens.
Experiment [6] has as its system SW-620. The experiment can be described thus: Concentration required to inhibit the colon SW 620 cell growth by 50%,P53 status of cell line used was mutant-type. It is filed as functional, cell-based. Particulars: Homo sapiens.
In experiment [7] the test system is A549. The experiment is described as follows: Concentration required to inhibit the lung A549 cell growth by 50%,P53 status of cell line used was wild-type. The class given is functional, cell-based. Conditions: Homo sapiens.
The nature of experiment [8]: Concentration required to inhibit the breast MDA-MB-435S cell growth by 50%,P53 status of cell line used was mutant-type. The class given is functional. Conditions: Homo sapiens.
Experiment [9] concerns the target Histone deacetylase. The experiment can be described thus: Concentration required to inhibit the partially purified HDAC enzyme by 50% obtained from H1299 cell lysate. The class given is functional, cell-based, Homo sapiens.
The test system of experiment [10] is HCT-116. The experiment is described as follows: Concentration required to inhibit the colon HCT116 cell growth by 50%,P53 status of cell line used was wild-type. It is filed as functional, cell-based. Conditions: Homo sapiens.
For experiment [11], the system named is NCI-H1299. The experiment can be described thus: Concentration required to inhibit the lung H1299 cell growth by 50%,P53 status of cell line used was deleted. Particulars: Homo sapiens.
The test system of experiment [12] is LS174T. The experiment is described as follows: Concentration required to inhibit the colon LS 174T cell growth by 50%,P53 status of cell line used was […]. The class given is functional, cell-based. Particulars: Homo sapiens.

As usually defined, the IC50 is the midpoint of a concentration-inhibition curve. A word on the AC50: it is the concentration giving half of the maximal activity seen. A higher AC50 goes with weaker potency. Regarding `O=C(CCCCCNC(=O)c1ccc([N+](=O)[O-])cc1)NO`, the IC50 in experiment [1] was found to be 1556 nM. The compound also registered an AC50 in experiment [2] of more than 10000 nM.

Take `CN(C)c1ccc(C(=O)NCCCCCCC(=O)NO)cc1`: the IC50 in experiment [3] was determined as 2300 nM; in [4], 3800 nM; in experiment [5], 210 nM; in experiment [6], 700 nM; in experiment [7] it was 800 nM; in experiment [8], 1300 nM. Besides, the IC50 in experiment [9] came to 1620 nM; in experiment [10], 200 nM; in [11], 3900 nM; in experiment [12], 1500 nM; in experiment [1] it was 46 nM. This compound also registered an AC50 in [2] of 2100 nM.

Consider `CN(C)c1ccc(C(=O)NCCCCC(=O)NO)cc1`, for which, in [1], the IC50 is more than 10000 nM. In addition, the AC50 in experiment [2] is more than 10000 nM.

In the case of `CN(C)c1ccc(C(=O)NCCCCCCCC(=O)NO)cc1`, the IC50 stood at 500 nM in experiment [5], 2180 nM in [9] and 145 nM in [1]. Besides, in experiment [2], the AC50 is 1600 nM.

Turning to `O=C(CCCCCNC(=O)c1ccc(-c2ccccc2)cc1)NO`, the IC50 in experiment [1] turned out to be 265 nM. Also, the AC50 in experiment [2] is more than 10000 nM.

In experiment [1], `O=C(CCCCCNC(=O)c1ccc(Cl)cc1)NO` yielded an IC50 of 369 nM. In experiment [2], the AC50 is more than 10000 nM.

In [1], `O=C(CCCCCN1C(=O)c2ccccc2C1=O)NO` gave an IC50 of 515 nM. The compound further yielded an AC50 in experiment [2] of 7500 nM.

Consider `O=C(CCCCCNC(=O)c1ccc(OCc2ccccc2)cc1)NO`, for which the IC50 in experiment [1] is 220 nM. This compound also displayed an AC50 in experiment [2] of more than 10000 nM.

Consider `O=C(O)CCCCCCC(=O)c1ccccc1`, for which the IC50 is 1720 nM in experiment [5], more than 10000 nM in experiment [9] and 270 nM in [1]. The compound also gave an AC50 in [2] of 4100 nM.

For `CONC(=O)CCCCCNC(=O)c1ccccc1`, the IC50 in experiment [1] is more than 10000 nM. In [2], this compound displayed an AC50 of more than 10000 nM.

In [1], `NNC(=O)CCCCCNC(=O)c1ccccc1` yielded an IC50 of more than 10000 nM. Moreover, the AC50 in experiment [2] was more than 10000 nM.

In turn, `O=C(CCCCCCC(=O)Nc1ccccn1)NO` showed an IC50 in [5] of 2000 nM.

Consider `O=C(CCCCCCC(=O)Nc1ccncc1)NO`, for which the IC50 was 5400 nM in [5], more than 10000 nM in experiment [9] and 306 nM in [1]. Besides, the AC50 in [2] is 8900 nM.

For the compound `COc1ccc(NC(=O)CCCCCCC(=O)NO)cc1`, the results for the IC50 in experiment [5], in [9] and in experiment [1] were more than 10000 nM, more than 10000 nM and 279 nM, respectively. In addition, in experiment [2], the AC50 amounted to 2400 nM.

As for `CN(CCCCCC(=O)NO)C(=O)c1ccc(N(C)C)cc1`, the IC50 in [1] is 443 nM. In experiment [2], the AC50 was more than 10000 nM.

As to `O=C(CCCCCCNC(=O)c1ccccc1)NO`, the IC50 in experiment [5] is 1040 nM; in experiment [9], more than 10000 nM; in [1], 568 nM. This compound also displayed an AC50 in [2] of 5700 nM.

`O=C(CCCCCCC(=O)Nc1cccnc1)NO` [PYROXAMIDE] returned an IC50 in experiment [5] of 6500 nM.

As to `O=C1N[C@@H](Cc2ccccc2)C(=O)N2CCC[C@@H]2C(=O)N[C@@H](CCCCCC(=O)[C@@H]2CO2)C(=O)N[C@H]1Cc1ccccc1` [TRAPOXIN B] (cyclo(FF[dP][Aoe])), the IC50 in experiment [5] came out at 2 nM.

`CC(/C=C/C(=O)NO)=C\[C@@H](C)C(=O)c1ccc(N(C)C)cc1` [TRICHOSTATIN] displayed an IC50 in [5] of 13 nM.

The values above are taken from ChEMBL document CHEMBL1136015, “Inhibitors of human histone deacetylase: synthesis and enzyme and cellular activity of straight chain hydroxamates” (J Med Chem, 2002).
